Measured values: patent US8785381B2 (Emisphere Technologies, Inc., priority 2003, dated 2014)

Experiment: in vivo
Settings: male, Sprague-Dawley, rat

For CC[C@H](C)[C@H](NC(=O)[C@H](Cc1ccccc1)NC(=O)[C@H](CCC(=O)O)NC(=O)[C@H](CCCCN)NC(=O)[C@H](C)NC(=O)[C@H](C)NC(=O)[C@H](CCC(N)=O)NC(=O)CNC(=O)[C@H](CCC(=O)O)NC(=O)[C@H](CC(C)C)NC(=O)[C@H](Cc1ccc(O)cc1)NC(=O)[C@H](CO)NC(=O)[C@H](CO)NC(=O)[C@@H](NC(=O)[C@H](CC(=O)O)NC(=O)[C@H](CO)NC(=O)[C@@H](NC(=O)[C@H](Cc1ccccc1)NC(=O)[C@@H](NC(=O)CNC(=O)[C@H](CCC(=O)O)NC(=O)[C@H](C)NC(=O)[C@@H](N)Cc1c[nH]cn1)[C@@H](C)O)[C@@H](C)O)C(C)C)C(=O)N[C@@H](C)C(=O)N[C@@H](Cc1c[nH]c2ccccc12)C(=O)N[C@@H](CC(C)C)C(=O)N[C@H](C(=O)N[C@@H](CCCCN)C(=O)NCC(=O)N[C@@H](CCCNC(=N)N)C(N)=O)C(C)C [GLP-1], the Cmax (1 ng/kg) was 0.0314 ng/mL, the Cmax (2 ng/kg) was 0.0324 ng/mL and the Cmax (3 ng/kg) was 0.0175 ng/mL. For the same molecule, the Cmax (10 ng/kg) was 0.0171 ng/mL, the Cmax (50 ng/kg) was 0.153 ng/mL and the Cmax (0.5 mg/kg) was 27.9 ng/mL. It also gave a Cmax (500 μg/kg) of 0.106 ng/mL.
